In patent US20230301968A1 (ZEPHAPHARM LTD, priority 2020, published 2023):
Like-named read-outs stand apart in the source and are kept apart here.

Legend:
[1] = in vitro; settings: human, hepatocytes; for half-life at 1 µM: t½
Protocol: (§1) In each assay, the amount of test compound remaining at each time point was analysed by LC-MS/MS.
(§2) The final incubation volume was 500 µL. […] A positive control compound, ethoxycoumarin, for CYP1A2 (as CYP1A2 substrate) was included. […] The reactions were stopped by transferring 50 µL of incubate to 100 µL acetonitrile containing internal standard at the appropriate time points (0, 5, 10, 20, 40 and 60 min). The termination plates were centrifuged at 2500 rpm at 4° C. for 30 min to precipitate the protein.
(§3) From a plot of In peak area ratio (compound peak area/internal standard peak area) against time, the gradient of the line was determined. Subsequently, half-life (t½) and intrinsic clearance (CLint) were calculated using the equations below: […]

[2] = system: human cryopreserved hepatocytes; experiment: Stability in human cryopreserved hepatocytes with or without CYP1A2 inhibitors (assays 1 to 3); settings: for decrease of flubendazole metabolism in the presence of the inhibitor: cryopreserved human hepatocytes, 1 µM flubendazole, over all inhibitor concentrations tested; for class of CYP1A2 inhibitor of flubendazole metabolism: human hepatocytes ex vivo
Protocol: as §1, §2, §3

[3] = humans, cited from earlier work
[4] = system: human liver microsomes; settings: cited from earlier work

| SMILES | hepatocyte CLint at 1 µM ([1]; CLint) [µL/min/1e6 cells] | half-life at 1 µM [1] [min] | decrease of flubendazole metabolism in the presence of the inhibitor [2] | class of CYP1A2 inhibitor of flubendazole metabolism [2] | further results |
| --- | --- | --- | --- | --- | --- |
| CCOc1ccc2ccc(=O)oc2c1 | 25.4 | 54.5 | – | – | – |
| COCCCC/C(=N\OCCN)c1ccc(C(F)(F)F)cc1 [Fluvoxamine, fluvoxamine] | – | – | at least 2.2 fold | strong (inhibits intrinsic clearance (CLint) of flubendazole in human hepatocytes ex vivo by ≥five-fold) | – |
| Cc1nc2c([nH]1)c(=O)n(C)c(=O)n2Cc1ccco1 [Furafylline, furafylline] | – | – | at least 4.2 fold | strong (inhibits intrinsic clearance (CLint) of flubendazole in human hepatocytes ex vivo by ≥five-fold) | increase in elimination half-life of caffeine ([3]; Tarrus et al., 1987): 7-10 fold |
| CCC[S+]([O-])c1ccc2[nH]c(NC(=O)OC)nc2c1 (stereo not drawn) [Ricobendazole, albendazole sulfoxide] | – | – | – | – | turnover in human liver microsomes [4]: low turnover |
| O=c1ccc2ccc(O)cc2o1 [Umbelliferone, umbelliferone] | 136 ± 8.14 | 10.2 | – | – | hepatocyte CLint at 1 µM ([1]; intrinsic clearance): 129 ± 2.93 µL/min/1e6 cells; CLint ([2]; human, hepatocytes, 1 µM): 131±9.59 µL/min/10^6 cells; t½ ([2]; human, hepatocytes, 1 µM): 10.5 min |
| Cn1c(=O)c2c(ncn2C)n(C)c1=O [caffeine] | – | – | – | – | elimination half-life ([3]; with furafylline): 50 h; elimination half-life ([3]; without furafylline): 5 to 7 h |
